US11986445B2, “Nutritional composition and infant formula for promoting myelination of the brain” (SOCIÉTÉ DES PRODUITS NESTLÉ S.A., priority 2015, dated 2024)

Assays:
[1] = system: brain myelination (myelin water fraction); assay: Cross-sectional correlation of infant formula nutrient content with brain myelination (MRI myelin water fraction); type: in vivo, human; settings: children up to 5 years fed different infant formulas
Text: This technique provides a quantitative measure, the Myelin Water Fraction (MWF), which is a surrogate marker of myelin content in the brain.
Infants included in this study were drawn from a larger longitudinal study of normal brain and behavioral development: the Brown University Assessment of Myelination and Behavior Across Maturation (BAMBAM). To focus on neurotypical development, children with known potential risk factors for learning, neurologic, or psychiatric disorders were specifically excluded during recruitment and enrollment. Thus, children with in utero alcohol or illicit substance exposure, premature (<37 weeks gestation) or multiple birth, fetal ultrasound abnormalities, complicated pregnancy (e.g., preeclampsia), APGAR scores <8, NICU admission, neurological disorder (e.g., head injury, epilepsy), psychiatric or developmental disorders in the infant, parents or siblings (including maternal depression requiring medication) were excluded. Ongoing screenings, such as the MCAT for autism, or CBCL for behavioral problems, were further used to remove enrolled children with clinically concerning behaviors or overt medical conditions (such as autism spectrum disorders).
A combination of retrospective and prospective data were acquired from parents via detailed medical histories and parental interview on the type of infant formula used, percentage of breastfeeding to formula feeding, and length of exclusive breastfeeding. This information was updated at each study visit, which occurred approximately every 6 months for children under 2 years, and yearly for older children. Using this information, children were categorized into one of 2 groups: #1. Exclusively formula-fed; and #2. Exclusively breastfed for at least 90 days (3 months). Children who were fed a combination of breastmilk and formula within 3 months were excluded from our analysis. Infants within the exclusively formula-fed group were further sub-divided based on parental reports of the main infant formula used throughout the first 3 months. Main formula was defined as that given 90% of the time or more (in the case were parents used an alternate brand during vacation, for example).
Using these criteria, 94 exclusively formula-fed infants and young children were selected into group #1. These included 13 children who received formula #2; 28 who received formula #5; 8 who received formula #3; 39 who received formula #4; 5 who received formula #1 and 1 who received formula #6. A sample of 52 exclusively breast-fed infants were also selected and matched to the over formula-fed group with regards to mean age, gestation duration, birth weight, male:female ratio, ethnicity ratio, maternal education, family size, and number of languages spoken in the home (in addition to English).

[2] = system: Neural Progenitor Cell (NPCs) from E14 mouse neocortex; assay: Neurosphere counts in 96-well plates; type: cell-based; settings: Sphingomyelin Low dose (Dose 1: 10 nM); cells grown for 2 days
Experimental: (§1) Generation of Neural Progenitor Cell (NPCs) Libraries: • dissociation of E14 mouse neocortex
(§2) E14 pup brains were harvested and placed in ice cold DPBS (1×)+10% Pen/Strep, then they were dissected using a dissecting microscope. From each pup, one brain hemisphere was placed in 2 ml of Neurobasal media/10% P/S/10× Hepes and another brain hemisphere was placed in another tube.
(§3) The tissue from each tube was aseptically and manually dissociate into single cells, neurobasal complete medium was added and centrifuged at 130 G for 5 min. The tissue was then re-suspended in neurobasal complete media with GF and placed in a corning suspension culture dish 100 mm×20 mm (#430591). Cells were passage twice using a 1:3 ratio, after what they were centrifuged (130 g 5 min), resuspended in freezing media (10% DMSO and neurobasal complete media, no GF) and frozen in liquid nitrogen (LN2).
Vials were remove from LN2, quickly defrosted, and cells were transferred, dropwise, to a 15 mL conical flask. 10 mls of complete neurobasal media was added. Cells were transferred to a suspension culture dish, and placed in an incubator for 2 hours. At 1.5 hours, cells were examined. Based on the health and number, the number of plates needed was estimated and the appropriate amount of complete neurobasal media was warmed. After 2 hours, cells were put in a 15 mL conical tube and spun at 130 G, 5 min. […]

[3] = system: Neural Progenitor Cell (NPCs) from E14 mouse neocortex; assay: Monolayer culture NPC proliferation assay; type: cell-based; settings: Sphingomyelin low dose (Dose 1: 10 nM); 3 days culture
Experimental: as §1, §2, §3
Vials were remove from LN2, quickly defrosted, and cells were transferred, dropwise, to a 15 mL conical flask. 10 mls of complete neurobasal media was added. Cells were transferred to a suspension culture dish, and placed in an incubator for 2 hours. At 1.5 hours, cells were examined. […]
EDU incorporation was measured using Click-iT® EdU Alexa Fluor® 555 Imaging Kit (Life technologies, #c10338). […]

Compound	association of nutrient with myelination (myelin water fraction) over time in the brain [1]	number of neurospheres, Average (Mean) [2]	neuronal proliferation, DAPI [3]
[Zn] [zinc]	an association with myelination (myelin water fraction) was observed		
CCCCC/C=C\C/C=C\C/C=C\C/C=C\CCCC(=O)O [AA, arachidonic acid]	an association with myelination (myelin water fraction) was observed		
Sphingomyelin	an association with myelination (myelin water fraction) was observed	94	280
[P] [phosphorus]	an association with myelination (myelin water fraction) was observed		
[Ca+2] [calcium]	an association with myelination (myelin water fraction) was observed		
phosphatidylcholine	an association with myelination (myelin water fraction) was observed		
vitamin B12	an association with myelination (myelin water fraction) was observed		
[Mg+2] [magnesium]	an association with myelination (myelin water fraction) was observed		
phosphatidylinositol	an association with myelination (myelin water fraction) was observed		
iron	an association with myelination (myelin water fraction) was observed		
